Read-outs that look alike come from different tables or passages of the source.
Key:
[1] = target: human plasma kallikrein (Homo sapiens (Human), UniProt P03952); assay: Kallikrein inhibition assay (FLINT) utilizing a quenched AMC peptide substrate; type: biochemical; settings: 30 min preincubation, read-out: Kallikrein Kin Inh IC50
In short: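 Enzyme (2 nM final) pre-incubated 30 min at room temperature with compound (11-point, 3-fold, top 1 μM, 2% DMSO), then 50 μM Z-Gly-Pro-Arg-AMC added in Tris pH 7.5 buffer. Kinetic fluorescence 340/440 nm every 5 min over 30 min; IC50 from 4-parameter logistic fit.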

[2] = target: Factor XIa (Homo sapiens (Human), UniProt P03951); assay: Factor XIa inhibition assay (FLINT) utilizing a fluorophore-quencher pair peptide substrate; type: biochemical; settings: 30 min preincubation, kinetic reads over 30 min, read-out: FXIa Kin Inh IC50
Chain of Factor XIa (P03951 388-625): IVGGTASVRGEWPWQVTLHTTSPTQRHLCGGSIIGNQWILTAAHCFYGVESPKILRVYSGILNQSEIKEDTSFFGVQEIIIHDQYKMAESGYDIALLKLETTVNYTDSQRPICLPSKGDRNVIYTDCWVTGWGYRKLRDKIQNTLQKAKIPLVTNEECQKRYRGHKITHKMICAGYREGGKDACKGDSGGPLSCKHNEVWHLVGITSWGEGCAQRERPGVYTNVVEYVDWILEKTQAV
Chain of Factor XIa (P03951 19-387 partner): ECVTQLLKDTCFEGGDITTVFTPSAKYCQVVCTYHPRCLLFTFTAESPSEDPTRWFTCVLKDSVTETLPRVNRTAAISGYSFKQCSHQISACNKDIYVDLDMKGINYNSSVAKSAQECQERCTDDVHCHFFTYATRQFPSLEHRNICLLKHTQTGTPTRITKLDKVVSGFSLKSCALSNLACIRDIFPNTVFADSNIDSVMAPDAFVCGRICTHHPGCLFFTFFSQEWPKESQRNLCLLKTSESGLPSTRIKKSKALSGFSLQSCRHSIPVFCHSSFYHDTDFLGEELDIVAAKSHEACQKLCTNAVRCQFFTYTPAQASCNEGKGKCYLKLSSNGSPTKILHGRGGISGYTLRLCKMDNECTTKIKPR
In short: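 FXIa ([…]) preincubated 30 min with compound (11-point 3-fold dilution, top 100 nM, 2% DMSO), then 15 μM quenched FXI Arg146-based peptide added; Tris pH 7.5, CaCl2, BSA, CHAPS. Fluorescence 485/520 nm read kinetically every 5 min over 30 min at RT; IC50 by 4-parameter fit.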

[3] = kinetic reads over 30 min, Z-Gly-Pro-Arg-AMC substrate 50 μM
[4] = 5Fam-KLTRAETV-K5Tamra substrate 15 μM
[5] = 5Fam-[…]-K5Tamra substrate 15 μM

Chain of human plasma kallikrein (P03952 391-638): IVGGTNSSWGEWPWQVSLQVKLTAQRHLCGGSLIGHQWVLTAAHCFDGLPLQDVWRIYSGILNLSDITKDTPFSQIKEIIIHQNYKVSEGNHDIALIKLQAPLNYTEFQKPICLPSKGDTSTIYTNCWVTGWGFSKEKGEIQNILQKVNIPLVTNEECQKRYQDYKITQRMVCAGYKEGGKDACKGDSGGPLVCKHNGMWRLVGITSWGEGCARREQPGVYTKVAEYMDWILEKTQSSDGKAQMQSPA
Chain of human plasma kallikrein (P03952 20-390 partner): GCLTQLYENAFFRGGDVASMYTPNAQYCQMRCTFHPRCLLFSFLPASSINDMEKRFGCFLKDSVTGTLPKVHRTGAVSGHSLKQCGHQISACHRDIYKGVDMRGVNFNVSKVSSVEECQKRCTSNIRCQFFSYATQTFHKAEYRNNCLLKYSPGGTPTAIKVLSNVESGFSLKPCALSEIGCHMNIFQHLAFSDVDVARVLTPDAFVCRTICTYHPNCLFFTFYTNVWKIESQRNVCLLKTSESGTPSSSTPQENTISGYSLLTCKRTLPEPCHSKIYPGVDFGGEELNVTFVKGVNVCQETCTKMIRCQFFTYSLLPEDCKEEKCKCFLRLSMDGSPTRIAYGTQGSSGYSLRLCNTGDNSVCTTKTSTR

Row | SMILES | IC50 [1, 3] [µM] | IC50 [2, 4] [nM] | IC50 [2, 5] [nM] | IC50 ([1]; μM, kinetic reads) [µM]
1 | Cn1cc(NC(=O)C2CC2)c(-c2c[nH]c([C@@H]3CC[C@H]4CC(c5c(-n6cnnn6)ccc(Cl)c5F)=CC(=O)N43)n2)n1 [Example 275, N-(3-(2-((3S,8aS)-7-(3-Chloro-2-fluoro-6-(1H-tetrazol-1-yl)phenyl)-5-oxo-1,2,3,5,8,8a-hexahydroindolizin-3-yl)-1H-imidazol-4-yl)-1-methyl-1H-pyrazol-4-yl)cyclopropanecarboxamide] | 0.0156 | 24.4 |  | 
2 | COC(=O)c1nccc(-c2cnc([C@@H]3CC[C@@H]4CC(c5c(-n6cc(Cl)nn6)ccc(Cl)c5F)=CC(=O)N43)[nH]2)c1F [Example 50] | 0.0316 | 19.8 |  | 
3 | O=C1C=C(c2c(-n3cnnn3)ccc(Cl)c2F)C[C@H]2CC[C@H](c3ncc(-c4ccnc(OC[C@@H]5COCCO5)c4F)[nH]3)N12 (relative stereo) [Example 156, (3*R,8aR)-3-(5-(2-(((S)-1,4-dioxan-2-yl)methoxy)-3-fluoropyridin-4-yl)-1H-imidazol-2-yl)-7-(3-chloro-2-fluoro-6-(1H-tetrazol-1-yl)phenyl)-2,3,8,8a-tetrahydroindolizin-5(1H)-one] | 0.0191 |  | 13.8 | 
4 | CCC(=O)Nc1ccccc1-c1c[nH]c([C@@H]2CC[C@H]3CC(c4c(-n5cnnn5)ccc(Cl)c4F)=CC(=O)N32)n1 (relative stereo) [Example 296, N-(2-(24(3S,8aS*)-7-(3-Chloro-2-fluoro-6-(1H-tetrazol-1-yl)phenyl)-5-oxo-1,2,3,5,8,8a-hexahydroindolizin-3-yl)-1H-imidazol-4-yl)phenyl)propionamide] | 0.0054 | 0.6 |  | 
5 | NC(=O)c1ccc(-c2c[nH]c([C@@H]3CC[C@H]4CC(c5c(-n6cnnn6)ccc(Cl)c5F)=CC(=O)N43)n2)cc1F [Example 198, 4-(2-((3S,8aS)-7-(3-chloro-2-fluoro-6-(1H-tetrazol-1-yl)phenyl)-5-oxo-1,2,3,5,8,8a-hexahydroindolizin-3-yl)-1H-imidazol-4-yl)-2-fluorobenzamide] | 0.0143 |  | 30.5 | 
6 | O=C1C=C(c2cc(Cl)ccc2-n2cc(C(F)(F)F)nn2)C[C@H]2CC[C@@H](c3ncc(-c4ccnc(CO)c4F)[nH]3)N12 (relative stereo) [Example 64, (3S,8aR*)-7-(5-chloro-2-(4-(trifluoromethyl)-1H-1,2,3-triazol-1-yl)phenyl)-3-(5-(3-fluoro-2-(hydroxymethyl)pyridin-4-yl)-1H-imidazol-2-yl)-2 3,8,8a-tetrahydroindolizin-1H-one] | 0.156 |  | 11.5 | 
7 | O=C1C=C(c2c(-n3cnnn3)ccc(Cl)c2F)C[C@H]2CC[C@@H](c3ncc(-c4ccnc5c4OCCO5)[nH]3)N12 [Example 361, (3S,8aR)-7-[3-chloro-2-fluoro-6-(tetrazol-1-yl)phenyl]-3-[5-(2,3-dihydro-[1,4]dioxino[2,3-b]pyridin-8-yl)-1H-imidazol-2-yl]-2,3,8,8a-tetrahydro-1H-indolizin-5-one] | 0.0061 | 0.7 |  | 
8 | Nc1ccc(-c2cnc([C@@H]3CC[C@@H]4CC(c5cc(Cl)ccc5-n5cnnn5)CC(=O)N43)[nH]2)c(F)n1 (stereo partly drawn) [Example 376, (3S,8aR)-3-(5-(6-amino-2-fluoropyridin-3-yl)-1H-imidazol-2-yl)-7-(5-chloro-2-(1H-tetrazol-1-yl)phenyl)hexahydroindolizin-5(1H)-one] | 0.209 | 7.3 |  | 
9 | NC(=O)c1ccc(-c2cnc([C@@H]3CC[C@H]4CC(c5c(-n6cnnn6)ccc(Cl)c5F)=CC(=O)N43)[nH]2)c(Cl)n1 [Example 228, 6-Chloro-5-(2-((3S,8aS)-7-(3-chloro-2-fluoro-6-(1H-tetrazol-1-yl)phenyl)-5-oxo-1,2,3,5,8,8a-hexahydroindolizin-3-yl)-1H-imidazol-5-yl)picolinamide] | 0.162 | 18.8 |  | 
10 | O=C1C=C(c2c(-n3cnnn3)ccc(Cl)c2F)CC2CC[C@@H](c3nc(-c4nc[nH]n4)c[nH]3)N12 (stereo partly drawn) [Example 331, (3S)-3-(4-(1H-1,2,4-Triazol-3-yl)-1H-imidazol-2-yl)-7-(3-chloro-2-fluoro-6-(1H-tetrazol-1-yl)phenyl)-2,3,8,8a-tetrahydroindolizin-5(1H)-one] |  | 347 |  | 2.4
11 | O=C1Nc2ccc(-c3cnc([C@@H]4CC[C@@H]5CC(c6c(-n7cnnn7)ccc(Cl)c6F)=CC(=O)N54)[nH]3)c(F)c2CO1 (single isomer, unassigned) [Example 118, 6-(24(3*S,8a*R)-7-(3-chloro-2-fluoro-6-(1H-tetrazol-1-yl)phenyl)-5-oxo-1,2,3,5,8,8a-hexahydroindolizin-3-yl)-1H-imidazol-5-yl)-5-fluoro-1,4-dihydro-2H-benzo[d][1,3]oxazin-2-one] | 0.0017 | 0.4 |  | 
12 | O=C1C=C(c2c(-n3cnnn3)ccc(Cl)c2F)C[C@H]2CC[C@@H](c3nc(-c4ncc(CO)s4)c[nH]3)N12 [Example 39, (3S,8aR)-7-(3-Chloro-2-fluoro-6-(1H-tetrazol-1-yl)phenyl)-3-(4-(5-(hydroxymethyl)thiazol-2-yl)-1H-imidazol-2-yl)-2,3,8,8a-tetrahydroindolizin-5(1H)-one] | 0.137 | 95.6 |  | 
13 | O=C1C=C(c2c(-n3cnnn3)ccc(Cl)c2F)C[C@H]2CC[C@@H](c3nc(-c4ccnc5[nH]ccc45)c[nH]3)N12 [Example 32, (3S,8aR)-3-(4-(1H-pyrrolo[2,3-b]pyridin-4-yl)-1H-imidazol-2-yl)-7-(3-chloro-2-fluoro-6-(1H-tetrazol-1-yl)phenyl)-2,3,8,8a-tetrahydroindolizin-5(1H)-one] | 0.0029 | 1.5 |  | 
14 | O=C(Nc1cnccc1-c1c[nH]c([C@@H]2CC[C@@H]3CC(c4c(-n5cnnn5)ccc(Cl)c4F)=CC(=O)N32)n1)C1CC1 (relative stereo) [Example 249, N-(4-(2-((3S,8a*R)-7-(3-Chloro-2-fluoro-6-(1H-tetrazol-1-yl)phenyl)-5-oxo-1,2,3,5,8,8a-hexahydroindolizin-3-yl)-1H-imidazol-4-yl)pyridin-3-yl)cyclopropanecarboxamide] | 0.0004 |  | 0.2 | 
15 | Nc1ccc(-c2cnc([C@@H]3CC[C@@H]4CC(c5c(-n6cnnn6)ccc(Cl)c5F)=CC(=O)N43)[nH]2)c(F)n1 [Example 358, (3S,8aR)-3-[5-(6-amino-2-fluoro-3-pyridyl)-1H-imidazol-2-yl]-7-[3-chloro-2-fluoro-6-(tetrazol-1-yl)phenyl]-2,3,8,8a-tetrahydro-1H-indolizin-5-one] | 0.0068 |  | 0.3 | 
16 | O=C(O)c1nccc(-c2cnc([C@@H]3CC[C@@H]4CC(c5cc(Cl)ccc5-n5cc(C(F)(F)F)nn5)=CC(=O)N43)[nH]2)c1F (single isomer, unassigned) [Example 54, 4-(2-((3S*,8aR)-7-(5-chloro-2-(4-(trifluoromethyl)-1H-1,2,3-triazol-1-yl)phenyl)-5-oxo-1,2,3,5,8,8a-hexahydroindolizin-3-yl)-1H-imidazol-5-yl)-3-fluoropicolinic acid] | 0.0679 |  | 0.8 | 
17 | CCN(CCO)c1nccc(-c2cnc([C@@H]3CC[C@@H]4CC(c5c(-n6cnnn6)ccc(Cl)c5F)=CC(=O)N43)[nH]2)c1F (single isomer, unassigned) [Example 136, (3S,8a*R)-7-(3-chloro-2-fluoro-6-(1H-tetrazol-1-yl)phenyl)-3-(5-(2-(ethyl(2-hydroxyethyl)amino)-3-fluoropyridin-4-yl)-1H-imidazol-2-yl)-2,3,8,8a-tetrahydroindolizin-5(1H)-one] | 0.0063 | 4.8 |  | 

Source: patent publication US20230295157A1, “3-(1H-IMIDAZOL-2-YL)-2,3,8,8A-TETRAHYDROINDOLIZIN-5(1H)-ONE DERIVATIVES USEFUL AS FACTOR XIA INHIBITORS” (JANSSEN PHARMACEUTICA NV, priority 2020, published 2023)
